Experimental data reported in publication PMC9518609, “Design and synthesis of new trimethoxylphenyl-linked combretastatin analogues loaded on diamond nanoparticles as a panel for ameliorated solubility and antiproliferative activity” (Journal of Enzyme Inhibition and Medicinal Chemistry, 2022).

Key:
Assay type in all cases: cell-based
MDA-MB-231 cells = test: Cell cycle analysis by DNA flow cytometry; conditions: MDA-MB-231, at IC50, 24 h; for %Pre-G1 (pre-G1 apoptosis): untreated control 1.99%; for %DIP G2/M (cells in G2/M phase): untreated control 5.64%
Procedure: Targeting the cell cycle division at distinct checkpoints of cancer cells has been identified as a promising strategy for cancer chemotherapy.
Cell cycle analysis in MDA-MB-231 cells was investigated using a fluorescent Annexin V-FITC/PI detection kit (BioVision EZCell™ Cell Cycle Analysis Kit Catalog #K920) by flow cytometry assay. All experimental steps were performed as reported earlier.
4.3.3. Cell cycle analysis of compound 6 and 12
Cell cycle analysis in MDA-MB-231 cells was investigated using fluorescent Annexin V-FITC/ PI detection kit (BioVision EZCellTM Cell Cycle Analysis Kit Catalog #K920) by flow cytometry assay. MDA-MB-231 cells at a density of 2 × 10^5 per well were harvested and washed twice in PBS. After that, the cells were incubated at 37 °C and 5% CO2. The […]
washed twice in PBS, fixed with 70% ethanol, rinsed again with PBS. Afterward, medium was stained with DNA fluorochrome PI for 15 min at 37 °C. […]
All experiments were done in triplicates. […]

MDA-MB-231 = test: MTT cytotoxic activity against breast MDA-MB-231 cancer cell line; conditions: MTT assay, 24 h treatment
Excerpt: (§1) All the synthesised compounds were screened for their cytotoxic activity against breast MDA-MB-231 cancer cell line and compounds 6 and 12 against breast MCF-10A cell line taking CA-4 as a positive control for the analysis. The in vitro cytotoxicity results of the prepared compounds were systematised in Table 1. […] Structurally, the prepared molecules contain three structural variations; including rotatable hydrazide derivatives, the core exchange with imidazolone ring, and the ring expansion with triazinone motif. […] It is noticed that directly attached benzene ring to triazinone scaffold (compound 6) or bioisosteric group (thiazolyl ester) as in compound 12, may contribute to the astonishing cytotoxicity against breast MDA-MB-231 cancer cells.
To measure the cytotoxic activity of the synthesised derivatives 2a–13e in breast cancer (MDA-MB-231) cell line. MTT assay method was applied to assess cell viability assay. All experimental steps were conducted as reported earlier.
(§2) Part I: Biological Studies
(§3) 4.3. Biological evaluation
(§4) 4.3.1. Cytotoxic activity evaluation
(§5) The cytotoxic actvity of the synthesized derivatives 2a-13e was measured in MDA-MB-231 breast cancer cell line and derivatives 6 and 12 in MCF-10A […].
(§6) Cell viability assay was assessed using MTT assay method. Cells at density of 1 x 104 were seeded in a 96-well plate at 37 °C for 24 h under 5% CO2. After incubation, the cells were treated with different concentrations of the test schiff bases 2a-13e and incubated for 24 h, then 20 µl of MTT solution at 5 mg/mL was applied and incubated for 4 h at 37 °C.
Dimethyl sulphoxide (DMSO) in volume of 100 µl was added to each well to dissolve the purple formazan that had formed. The color intensity of the formazan product, which represents the growth condition of the cells, is quantified by using an ELISA plate reader (EXL 800, USA) at 570 nm absorbance. The experimental conditions were carried out with at least three replicates, and the experiments were repeated at least three times. […]

MCF-10A = test: MTT cytotoxic activity against breast MCF-10A cell line; conditions: MTT assay, 24 h treatment
Excerpt: as §1, §2, §3, §4, §5, §6
Dimethyl sulphoxide (DMSO) in volume of 100 µl was added to each well to dissolve the purple formazan that had formed. The color intensity of the formazan product, which represents the growth condition of the cells, is quantified by using an ELISA plate reader (EXL 800, USA) at 570 nm absorbance. […]
Compounds 6, 12 and CA-4 were evaluated for their tubulin inhibitory activity according to manufacturer’s instructions using # abcam Human Beta-tubulin simplestep ELISA Kit ab245722. MDA-MB-231 cells were trypsinized, counted and seeded at the 2 × 105 into 96-well micro titer plates. […]
(O.D.) was measured at 450±10 nm using microplate reader (Spectromax Plus 96 well plate […]

caspase 3/7 = test: Caspase 3/7 green flow cytometry assay in MDA-MB-231 cells; conditions: MDA-MB-231, at IC50, 24 h
Excerpt: Further, it is important to check effector caspase 3/7. The cleavage of caspases is specifically responsible for programmed cell death and apoptosis. […] The results were shown in Figure 5 and the expression level of caspase 3/7 was increased when compared with no control cells.
Caspase 3/7 in MDA-MB-231 cells was detected using CellEvent® Caspase 3/7 Green Detection Flow Cytometry Assay Kit. Caspase 3/7 activity in the MDA-MB-231 cell line was detected in the presence of compounds 6 and 12 at their IC50 concentration (µM) using CellEvent® caspase 3/7 green detection flow cytometry assay kit according to the manufacturer’s directions. All experimental steps were conducted as reported earlier.
4.3.4.3. Caspase 3/7 assay for compounds 6 and 12
Caspase 3/7 in MDA-MB-231 cells was investigated using CellEvent® Caspase 3/7 Green Detection Flow Cytometry Assay Kit. Caspase 3/7 activity in MDA-MB-231 cell line was detected in the presence of compounds 6 and 12 at their IC50 concentration (µM) using CellEvent® caspase 3/7 green detection flow cytometry assay kit according to manufacturer’s directions. […] cells at a density of 2.5 × 10^5 per well were harvested and washed with ice cold PBS, and cell lysates were prepared and combined with reaction buffer and incubated with specific colorimetric substrates (Caspase 3/7 Detection Reagent) at 37 °C for 6 h. Detection reagent is composed of DNA binding dye conjugated to caspase 3 and caspase 7 recognition sequence (DEVD) by a short peptide linker. The released DNA binding dye binds DNA producing a bright and stable signal. Finally, the samples were analyzed at 488 nm in a BD FACS Calibur flow cytometer. All experiments were performed in triplicates.
Information Classification: General 4

Row | Compound | %Pre-G1 (pre-G1 apoptosis) (MDA-MB-231 cells) | %DIP G2/M (cells in G2/M phase) (MDA-MB-231 cells) | IC50 (MDA-MB-231) | IC50 (MCF-10A) | Casp3/7 (percentage of activated caspase 3/7) (caspase 3/7) | increase in caspase 3/7 activation relative to untreated control (caspase 3/7) | IC50 (MDA-MB-231; Homo sapiens, MDA-MB-231) | IC50 (MCF-10A; Homo sapiens, MCF-10A)
1 | ethyl 2-(2-(6-oxo-5-(3,4,5-trimethoxybenzylidene)-3–(3,4,5-trimethoxyphenyl)-5,6-dihydro-1,2,4-triazin-2(1H)-yl)thiazol-4-yl)acetate [Compound 12] | 29.81% | 26.75% | 1.71 ± 0.11 µM | 14.6 ± 1.96 µM | 7.51% | ~9.16 fold |  | 
2 | COc1cc(C=C2N=C(c3cc(OC)c(OC)c(OC)c3)N(c3ccccc3)NC2=O)cc(OC)c1OC [Compound 6, 2-phenyl-5-(3,4,5-trimethoxybenzylidene)-3-(3,4,5-trimethoxyphenyl)-1,2-dihydro-1,2,4-triazin-6(5H)-one] | 43.50% | 35.09% |  |  | 12.87% | about 15.70 fold | 1.36 ± 0.1 µM | 19.5 ± 2.15 µM
